Data: ChEMBL document CHEMBL4330144, “A mitochondria-targeted organic arsenical accelerates mitochondrial metabolic disorder and function injury” (Bioorg Med Chem, 2019)

System: NB-4
Assay: Induction of mitochondrial membrane potential loss in human NB4 cells by JC1 staining based flow cytometry (reference value: 27.7%)
Type: functional

With N#CC(C#N)=NNc1cccc(Cl)c1 [CARBONYL CYANIDE M-CHLOROPHENYLHYDRAZONE] the Activity was 93%.
